From US11364239B2 (priority 2020, dated 2022)
“Also recorded” adds a separate entry of the source.

Legend:
rats = conditions: rat, in vivo
[1] = system: Aflatoxin B1-exposed rats; conditions: rat, in vivo
[2] = system: Aflatoxin B1-exposed rats; conditions: rat, in vivo; remark: listed apart in the source
[3] = system: Cyp enzymes (Cyp2b2, Cyp1a1, Cyp3a18, Cyp3a9, Cyp2d2, Cyp2c7, Cyp2a3, Cyp2d1, Cyp2c24, Cyp4a2); conditions: in vivo

With Aflatoxin B1 as the compound, how does the food intake (rats) read?
The food intake was “comparable food intake”.

And the “hepatocellular BrdU staining” value (rats)?
The value was “variable”.

What about the liver histopathology (rats) of the same compound?
The liver histopathology was “abnormal liver histopathology”.

What about the liver hydroxyproline (rats) of the same compound?
The liver hydroxyproline was “significant increase”.

What about the “serum ALT” value (rats) of the same compound?
Its value is “reduced Serum ALT”.

And the serum transaminases (rats)?
Its serum transaminases is “trend towards increased serum transaminases”.

And the tissue hydroxyproline (rats)?
The tissue hydroxyproline was “mild elevation”.

What about the weight gain (rats) of the same compound?
Its weight gain is “decreased weight gain”.

With `c1cn2cc(-c3ccc4cn[nH]c4c3)nc(Nc3ccc(N4CCOCC4)cc3)c2n1` [Entospletinib] as the compound, how does the “mitigating Aflatoxin B1 induced toxicity or injury” value ([1]; po) read?
The value was “only mildly efficacious”.

Which “beneficial effects on Aflatoxin B1-induced growth impairment or hepatotoxicity” value ([1]; po) does the source give for `CCOC(=O)[C@H](CCc1ccccc1)N[C@@H](C)C(=O)N1Cc2ccccc2C[C@H]1C(=O)O` [Quinapril] here?
The value was “did not show beneficial effects”.

Which “reduction of Aflatoxin B1-induced liver injury” value ([1]; po, 50 mg/kg) does the source give for Cyp3cide here?
The value was “did not reduce”.

Which results are given for `CC(C)CN(C[C@@H](O)[C@H](Cc1ccccc1)NC(=O)O[C@H]1CCOC1)S(=O)(=O)c1ccc(N)cc1` [Amprenavir, [(3S)-oxolan-3-yl] N-[(2S,3R)-4-[(4-aminophenyl)sulfonyl-(2-methylpropyl)amino]-3-hydroxy-1-phenylbutan-2-yl]carbamate]?
effect on Aflatoxin B1-induced reduction in weight gain [2]: no effect; liver hydroxyproline [2]: trends towards reducing; morphometric measurement of liver fibrosis [2]: trends towards reducing; overall effects on Aflatoxin B1-induced liver injury [2]: significant or trends towards significant beneficial effects; serum ALT [2]: reduced serum ALT; final weights (indexed weight) [1]: no pairwise comparisons showed significant differences; liver fibrosis, as assessed by Sirius Red staining [1]: decreased liver fibrosis; liver hydroxyproline content [1]: trend towards decreased liver hydroxyproline content; liver hydroxyproline levels (a measure of liver fibrosis) [1]: trends towards decreased hydroxyproline; overall Aflatoxin B1 mitigation activity (liver histopathology: hepatocellular BrdU staining, serum transaminases, hydroxyproline levels) [1]: excellent mitigation activity; also recorded: most efficacious drug; serum ALT levels [1]: significantly lower; serum transaminases [1]: lower serum transaminases; survival [1]: improved survival; expression of Cyp enzymes in rat livers (transcriptomics) [3]: greatly upregulated
